The nature of this data set: UV-spectrum in ethanol. Type of data set: physicochemical. Conditions: for UV-spectrum: ε: at λmax, in M-1cm-1 (unit assumed).

In the case of `CCCCCC(=O)Nc1ccc(-n2nc3ccccc3n2)c(O)c1` [Example A-2], the “UV-spectrum: λmax” value stood at 346 nm and the “UV-spectrum: ε” value came out at 29933.

On to `CCN(CC)c1ccc(-n2nc3ccccc3n2)c(O)c1` [Example A-1], for which the “UV-spectrum: λmax” value came out at 385 nm and the “UV-spectrum: ε” value turned out to be 29591.

Values taken from patent publication US8221729B2, “Use of aminophenylbenzotriazole derivatives for protecting human and animal skin and hair from the harmful effects of UV radiation and cosmetic compositions thereof” (BASF SE, priority 2006, dated 2012).
